Assays:
HT-1080 cells = experiment: Plasmin release from plasmin-loaded HT-1080 cells; format: cell-based, human; details: 1 mM tranexamic acid added to the serum-containing medium
Protocol: FIG. 24. Plasmin release from HT-1080 cells into serum-free and serum-containing media. Confluent layers of HT-1080 cells were first loaded with plasmin by incubation for 1 hour at 37° C. in serum-free MEM medium (0.5 ml) containing human plasmin (0-5 μg/ml). After rinsing the cell layers three times, they were incubated for 2 hours at 37° C. with either serum-free medium (∘ - - - ∘), medium containing 10% heat-inactivated and plasminogen-depleted fetal calf serum (● - - - ●), or the latter with tranexamic acid (100 μM) (▪ - - - ▪). Plasmin was then assayed in the cell-bound fraction (A) and the media (B). At the time of transfer to new media, there was approximately 28 ng of plasmin bound to the cells from the pretreatment with 2.5 μg of plasmin/well.
In the Examples concerning plasmin binding to cells from medium, human plasmin (approximately 18 CU/mg; Kabi Diagnostica, Stockholm, Sweden) was added to the cultures at final concentrations of 0-5 μg/ml. The cells were incubated for 3 hours at 37° C. before assay of cell-bound and supernatant plasmin (see below). For plasmin release experiments, cells were loaded for 1 hour at 37° C. with 0-5 μg/ml plasmin in serum-free medium, then rinsed three times with MEM.
Plasmin bound to the cell layer was recovered and assayed as follows. After harvest of culture medium, the cells were rinsed three times with PBS (plasmin assays of further rinses were negative); then the bound plasmin was specifically eluted (Miles, L. A., and E. F. Plow, “Binding and activation of plasminogen on the platelet surface”, J. Biol. Chem. 260: 4303-4311, 1985) with a solution of 1 mM tranexamic acid in the same rinsing solution (150 μl/well). Plasmin activity was assayed in eluate samples (50 μl) as above with an incubation time of 3 hours at 37° C. Tranexamic acid at 1 mM had no effect on the thioesterase activity of plasmin in these assays.

u-PA = u-PA activity in medium of HT-1080 cultures (immunocapture assay); format: cell-based, human
Protocol: Cell culture supernatants were assayed for pro-u-PA and active u-PA by the following modification of an immunocapture method (Stephens et al., 1988; Stephens et al., 1987). Microtitre wells of polystyrene immunoplates (type 269620, A/S Nunc, Roskilde, Denmark) were coated overnight at 37° C. with 50 μl of a solution of goat IgG antibodies to human u-PA (cat. #398, American Diagnostica). The coating solution contained 2.5 μg of IgG per ml of […] sodium carbonate (pH 9.8). After rinsing, the wells were treated with conditioned medium ([…]) for 2 hours at 23° C., then rinsed again. Half the wells were then treated with 50 μl of freshly prepared 2 μM p-nitrophenyl guanidinobenzoate (NPGB, Sigma) (Danø, K., and E. Reich, “Plasminogen activator from cells transformed by an oncogenic virus—Inhibitors of the activator reaction”, Biochim. Biophys. Acta 566: 138-151, 1979) for 20 minutes at 37° C. The other half (controls) received 50 μl of rinsing buffer (0.05% Tween 20 in PBS). After rinsing, u-PA was assayed in all the wells by addition of 40 μl of plasminogen solution (100 μg/ml in assay buffer consisting of 50 mM sodium glycinate (pH 7.8), 0.1% Triton X-100, 0.1% gelatin and 10 mM 6-aminocaproic acid which also contained a very low concentration of plasmin (10 ng/ml)), and incubation took place for 30 minutes at 37° C. This concentration of plasmin in the plasminogen incubation was sufficient to enable full realization of the potential activity of pro-u-PA (cf. Petersen et al., 1988). The plasmin produced by this incubation was assayed by its thioesterase activity (Green, G. D. G., and E. Shaw, “Thiobenzyl benzyloxycarbonyl-L-lysinate, substrate for a sensitive colorimetric assay for trypsin-like enzymes”, Anal. Biochem. 93: 223-226, 1979) by the addition of 200 μl of a solution containing 200 mM potassium phosphate (pH 7.5), 200 MM KCl, 0.1% Triton X-100, 220 μM Z-lysine thiobenzyl ester (Peninsula Laboratories, Belmont, Calif.) and 220 μM 5,5′-dithiobis(2-nitrobenzoic acid) (Sigma). This mixture was incubated for 30 minutes at 37° C., and the absorbancies of the wells were read at 405 nm. Active u-PA (60,000 IU/mg) was purchased from Calbiochem-Behring (La Jolla, Calif.) and pro-u-PA (potential activity 90,000 IU/mg) was obtained from American Diagnostica.
The following additions were made to cell layers growing in MEM medium (0.5 ml) containing 10% heat-inactivated and plasminogen-depleted fetal calf serum: native human plasminogen (Plg, 40 μg/ml); anti-catalytic monoclonal antibody to human u-PA (10 μg/ml); anti-catalytic monoclonal antibody to human t-PA (10 μg/ml); PAI-2 (titration equivalent of 3.6 UI u-PA/ml); anti-catalytic monoclonal antibody to human plasmin (20 μg/ml); aprotinin (200 KIU/ml); tranexamic acid (TA, as shown). The cultures were incubated for the times shown before assay of cell-bound plasmin. The incubation with plasminogen was used as the 100% control for bound plasmin.
Confluent cell layers in serum medium (0.5 ml) were preincubated for 1 hour at 37° C. with an anti-catalytic monoclonal antibody to human u-PA (10 μg/ml) or PAI-2 (titration equivalent of 3.6 IU u-PA/ml). The cells were then rinsed three times with serum-free MEM medium before incubation for 3 hours at 37° C. with MEM medium containing 10% heat-inactivated and plasminogen-depleted fetal calf serum and native human plasminogen (Plg, 40 μg/ml). The incubation with plasminogen was used as the 100% control for bound plasmin while the control for u-PA was the incubation without plasminogen.

thrombospondin = thrombospondin (Homo sapiens, UniProt P07996); details: purified thrombospondin; cited from earlier work
Sequence of thrombospondin (P07996 19-1170): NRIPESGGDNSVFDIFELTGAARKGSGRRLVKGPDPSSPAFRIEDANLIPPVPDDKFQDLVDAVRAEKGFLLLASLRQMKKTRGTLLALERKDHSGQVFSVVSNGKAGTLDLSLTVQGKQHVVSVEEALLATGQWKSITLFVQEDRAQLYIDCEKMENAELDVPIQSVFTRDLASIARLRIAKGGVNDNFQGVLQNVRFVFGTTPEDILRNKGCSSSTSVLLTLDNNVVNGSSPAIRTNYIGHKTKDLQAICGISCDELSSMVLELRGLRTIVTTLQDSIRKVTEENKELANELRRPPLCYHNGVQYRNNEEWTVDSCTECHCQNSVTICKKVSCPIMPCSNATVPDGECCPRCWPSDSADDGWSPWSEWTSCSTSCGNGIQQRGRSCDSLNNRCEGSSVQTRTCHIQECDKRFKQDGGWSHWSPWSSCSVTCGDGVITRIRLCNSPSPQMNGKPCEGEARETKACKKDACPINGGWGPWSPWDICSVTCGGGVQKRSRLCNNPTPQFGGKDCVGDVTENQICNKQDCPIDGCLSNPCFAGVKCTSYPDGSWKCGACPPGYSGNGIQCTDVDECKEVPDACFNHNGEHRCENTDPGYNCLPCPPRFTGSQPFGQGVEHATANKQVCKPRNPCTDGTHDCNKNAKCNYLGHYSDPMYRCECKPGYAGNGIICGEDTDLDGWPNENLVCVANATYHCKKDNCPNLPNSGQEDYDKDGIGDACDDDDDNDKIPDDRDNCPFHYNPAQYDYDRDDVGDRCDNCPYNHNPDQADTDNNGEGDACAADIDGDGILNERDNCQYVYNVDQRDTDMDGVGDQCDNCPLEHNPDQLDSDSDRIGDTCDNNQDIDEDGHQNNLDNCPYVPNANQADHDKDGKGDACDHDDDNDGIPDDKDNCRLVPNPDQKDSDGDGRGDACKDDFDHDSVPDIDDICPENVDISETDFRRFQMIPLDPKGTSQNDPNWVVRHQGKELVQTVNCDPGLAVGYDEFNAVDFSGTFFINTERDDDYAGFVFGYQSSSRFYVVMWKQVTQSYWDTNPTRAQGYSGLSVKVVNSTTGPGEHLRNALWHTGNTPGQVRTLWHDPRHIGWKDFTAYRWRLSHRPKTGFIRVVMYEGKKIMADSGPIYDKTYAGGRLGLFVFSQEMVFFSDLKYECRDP

laminin = details: immobilized laminin; cited from earlier work
cultured cells = details: plasminogen, cultured cells; cited from earlier work
fibronectin = fibronectin (Homo sapiens, UniProt P02751); details: immobilized fibronectin; cited from earlier work
Sequence of fibronectin (P02751 32-2477, species assumed): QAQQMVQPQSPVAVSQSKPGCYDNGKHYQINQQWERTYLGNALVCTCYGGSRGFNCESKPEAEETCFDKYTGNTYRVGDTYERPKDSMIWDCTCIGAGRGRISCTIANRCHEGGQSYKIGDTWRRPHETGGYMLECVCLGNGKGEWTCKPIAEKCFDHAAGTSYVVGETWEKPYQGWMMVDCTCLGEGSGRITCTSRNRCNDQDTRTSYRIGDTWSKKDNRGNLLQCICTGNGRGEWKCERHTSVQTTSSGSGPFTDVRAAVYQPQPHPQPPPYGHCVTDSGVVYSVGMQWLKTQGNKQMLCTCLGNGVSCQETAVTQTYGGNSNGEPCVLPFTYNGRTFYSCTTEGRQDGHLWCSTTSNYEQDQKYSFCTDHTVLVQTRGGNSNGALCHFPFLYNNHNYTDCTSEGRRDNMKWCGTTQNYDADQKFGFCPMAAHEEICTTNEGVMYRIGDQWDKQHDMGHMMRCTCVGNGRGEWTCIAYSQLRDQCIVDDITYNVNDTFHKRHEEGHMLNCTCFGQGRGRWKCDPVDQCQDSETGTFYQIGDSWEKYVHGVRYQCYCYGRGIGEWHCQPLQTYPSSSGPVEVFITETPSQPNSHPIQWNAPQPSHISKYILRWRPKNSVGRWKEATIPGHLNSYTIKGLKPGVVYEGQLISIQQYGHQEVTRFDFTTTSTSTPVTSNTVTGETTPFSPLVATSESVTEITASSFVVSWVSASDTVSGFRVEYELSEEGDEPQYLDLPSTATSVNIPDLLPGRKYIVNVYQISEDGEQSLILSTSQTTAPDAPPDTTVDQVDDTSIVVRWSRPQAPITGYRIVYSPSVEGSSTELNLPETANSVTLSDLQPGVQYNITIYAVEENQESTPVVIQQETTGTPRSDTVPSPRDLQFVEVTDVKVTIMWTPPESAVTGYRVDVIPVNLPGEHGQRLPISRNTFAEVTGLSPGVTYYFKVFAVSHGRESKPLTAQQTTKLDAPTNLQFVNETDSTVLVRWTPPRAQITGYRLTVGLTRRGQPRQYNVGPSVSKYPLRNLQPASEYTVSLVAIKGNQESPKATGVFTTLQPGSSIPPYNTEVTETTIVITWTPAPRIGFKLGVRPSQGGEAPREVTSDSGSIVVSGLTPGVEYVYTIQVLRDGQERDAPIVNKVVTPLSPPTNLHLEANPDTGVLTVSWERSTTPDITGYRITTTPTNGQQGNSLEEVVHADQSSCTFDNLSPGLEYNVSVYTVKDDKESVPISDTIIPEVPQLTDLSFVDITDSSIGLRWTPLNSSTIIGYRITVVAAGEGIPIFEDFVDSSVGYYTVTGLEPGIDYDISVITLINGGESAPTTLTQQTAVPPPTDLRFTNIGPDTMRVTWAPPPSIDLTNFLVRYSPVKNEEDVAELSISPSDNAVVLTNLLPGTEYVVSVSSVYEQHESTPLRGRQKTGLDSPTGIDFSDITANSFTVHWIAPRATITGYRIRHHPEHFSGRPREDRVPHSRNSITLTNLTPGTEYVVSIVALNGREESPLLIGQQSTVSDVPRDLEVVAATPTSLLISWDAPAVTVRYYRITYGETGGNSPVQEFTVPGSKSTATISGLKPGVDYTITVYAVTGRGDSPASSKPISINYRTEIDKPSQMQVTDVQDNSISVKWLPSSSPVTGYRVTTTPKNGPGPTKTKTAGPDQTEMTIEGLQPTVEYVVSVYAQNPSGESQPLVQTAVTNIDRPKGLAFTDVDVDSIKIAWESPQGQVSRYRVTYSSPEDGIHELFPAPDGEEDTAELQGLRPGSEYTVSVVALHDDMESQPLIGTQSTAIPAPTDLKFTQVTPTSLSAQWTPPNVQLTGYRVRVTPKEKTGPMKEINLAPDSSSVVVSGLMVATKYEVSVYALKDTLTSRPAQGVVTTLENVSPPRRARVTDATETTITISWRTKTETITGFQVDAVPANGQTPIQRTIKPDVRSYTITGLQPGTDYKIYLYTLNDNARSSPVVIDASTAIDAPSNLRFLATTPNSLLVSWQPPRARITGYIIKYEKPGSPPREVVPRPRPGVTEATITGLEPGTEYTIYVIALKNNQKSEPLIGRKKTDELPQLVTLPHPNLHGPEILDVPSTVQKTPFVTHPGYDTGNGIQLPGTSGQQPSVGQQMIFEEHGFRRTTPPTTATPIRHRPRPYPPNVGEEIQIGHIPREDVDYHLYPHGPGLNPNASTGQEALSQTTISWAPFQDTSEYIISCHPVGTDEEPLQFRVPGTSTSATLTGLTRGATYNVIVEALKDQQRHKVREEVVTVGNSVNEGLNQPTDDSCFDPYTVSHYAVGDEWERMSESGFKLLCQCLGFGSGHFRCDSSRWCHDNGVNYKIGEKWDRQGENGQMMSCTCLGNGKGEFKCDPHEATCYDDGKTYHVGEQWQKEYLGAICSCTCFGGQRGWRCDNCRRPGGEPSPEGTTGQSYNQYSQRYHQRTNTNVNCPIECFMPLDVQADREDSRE

[1] = 3 h, serum medium with Plg 40 μg/ml, additions as b555, control without Plg = 100
[2] = 17 h, serum medium with Plg 40 μg/ml, additions as b555, control without Plg = 100

In the case of NC[C@H]1CC[C@H](C(=O)O)CC1 [TA, tranexamic acid], the “Plasmin activity recovered from the cells” value (HT-1080 cells) is reported as “no plasmin activity could be recovered from the cells”, the “u-PA activity in medium (%)” value (u-PA; 3 h, Plg 40 μg/ml + TA 10 μM) is reported as 116% and the “u-PA activity in medium (%)” value (u-PA; 3 h, Plg 40 μg/ml + TA 100 μM) is reported as 92%. For the same molecule, the “u-PA activity in medium (%)” value (u-PA; 17 h, Plg 40 μg/ml + TA 10 μM) was 87% and the “u-PA activity in medium (%)” value (u-PA; 17 h, Plg 40 μg/ml + TA 100 μM) was 95%.

In the case of “Plg: native human plasminogen (glutamic acid N-terminal) purified from human plasma on lysine-Sepharose”, the Kd (thrombospondin) is given as 35 nM, the Kd (laminin) is given as 3 nM and the Kd (cultured cells) is given as 1000 nM. The “u-PA activity in medium (%)” value (u-PA; [1]) was 111%, the “u-PA activity in medium (%)” value (u-PA; [2]) was 83% and the Kd (fibronectin) was 90 nM.

With aprotinin the “u-PA activity in medium (%)” value (u-PA; [1]) was 93% and the “u-PA activity in medium (%)” value (u-PA; [2]) was 99%.

B1: PAI-2: human type-2 plasminogen activator inhibitor purified from U937 cells (protein, UniProt P05120 1-415, looked up)
Plasminogen activator …: MEDLCVANTLFALNLFKHLAKASPTQNLFLSPWSISSTMAMVYMGSRGSTEDQMAKVLQFNEVGANAVTPMTPENFTSCGFMQQIQKGSYPDAILQAQAADKIHSSFRSLSSAINASTGNYLLESVNKLFGEKSASFREEYIRLCQKYYSSEPQAVDFLECAEEARKKINSWVKTQTKGKIPNLLPEGSVDGDTRMVLVNAVYFKGKWKTPFEKKLNGLYPFRVNSAQRTPVQMMYLREKLNIGYIEDLKAQILELPYAGDVSMFLLLPDEIADVSTGLELLESEITYDKLNKWTSKDKMAEDEVEVYIPQFKLEEHYELRSILRSMGMEDAFNKGRANFSGMSERNDLFLSEVFHQAMVDVNEEGTEAAAGTGGVMTGRTGHGGPQFVADHPFLFLIMHKITNCILFFGRFSSP
For B1, the “u-PA activity in medium (%)” value (u-PA; [1]) was 89%, the “u-PA activity in medium (%)” value (u-PA; [2]) was 77% and the “u-PA activity in medium (%)” value (u-PA; cells preincubated 1 h with inhibitor, rinsed, then 3 h with Plg 40 μg/ml in serum medium) was 86%.
